Structures can show the parent of a compound that is named as a salt.
Assays:
cGMP-PDE = target: T1, cGMP-PDE (Sus scrofa, UniProt A0A287B475); test: Inhibitory activity against cGMP-PDE prepared from swine lung; type: biochemical; conditions: 1 mM EGTA, 1 mM cGMP as substrate, DMSO 5% or below
T1 construct: Swine lung was minched, followed by the addition of five times (by volume) as much buffer A; from tissue; host or cells: swine lung
Protocol: The enzyme activity of the cGMP-PDE prepared from swine lung was determined according to the method of Thompson et al. This determination was conducted in the presence of 1 mM EGTA by the use of 1 mM cGMP as substrate. Each compound according to the present invention was dissolved in DMSO and thereafter added to the reaction system to determine the inhibitory activity of the compound. The final concentration of DMSO in the reaction solution was controlled to 5% or below.
The preparation of cGMP-PDE was conducted as follows.
Swine lung was minched, followed by the addition of five times (by volume) as much buffer A (comprising Tris/HCl (20 mM), Mg acetate (2 mM), 2-mercaptoethanol (10 mM), EGTA (0.1 mM) and PMSF (0.2 mM) and adjusted to pH7.4). The resulting mixture was homogenized and centrifuged at 1000×g for 5 minutes. Ammonium sulfate was added to the obtained supernatant and the resulting mixture was centrifuged at 20000×g for 45 minutes to collect a fraction precipitating between 30 and 40% saturation with ammonium sulfate. This fraction was dialyzed against buffer A and passed through a column of DEAE-Toyopearl 650S (a product of Tosoh, Tokyo, Japan). The column was washed with buffer A and subjected to gradient elution with 0.05 to 0.2 M NaClibuffer A to collect a cGMP-PDE fraction.
This cGMP-PDE fraction was passed through Blue-Sepharose CL-6B (a product of Pharmacia, Uppsala, Sweden). The resulting column was washed with buffer A containing cAMP (10 mM) and NaCl (0.5 M) and eluted with buffer A containing cGMP (10 mM) and NaCl (0.5 M). The obtained fraction was dialyzed, concentrated and stored.

[1] = test system: pulmonary arterial pressure (PAP); test: Pulmonary arterial pressure lowering activity on anesthetized thoracotomized dog by intravenous administration; type: in vivo; conditions: relative ratio to activity of sodium 1-[chloro-4-(3,4-methylenedioxybenzyl)aminoquinazolin-2-yl]piperidine-4-carboxylate
Protocol: Male and female hybrid dogs having a weight of about 10 kg were operated under enflurane anesthesia with N2 O/O2 as carrier. Each dog was thoracotomized in the left fourth intercostal space and a pressure transducer (MPC-500 mfd. by Miller) was inserted into the pulmonary artery to determine the pulmonary arterial pressure (PAP). This experiment was conducted with the mean PAP (mPAP) increased by about 10 mmHg by lowering the pressure of oxygen fed by about 40% of the normal one. Each compound according to the present invention was dissolved in Polyethylene glycol 400 (a product of Wako Pure Chemical Industries, Ltd.) in a concentration of 1 mg/ml and, if necessary, further diluted with Polyethylene glycol 400. The resulting solution was intravenously administered to the dog through a polyethylene catheter indwelling in the femoral vein.

| SMILES | IC50 (cGMP-PDE) [nM] | PAP lowering activity [1] |
| --- | --- | --- |
| COc1ccc(CNc2nnc(Cl)c3ccc(C#N)cc23)cc1Cl [Example 1, 1-Chloro-4-(3-chloro-4-methoxybenzyl)amino-6-cyanophthalazine] | 1.7 | ≥ 3 |
| COc1ccc(CNc2nnc(N3CCC(CCO)CC3)c3ccc(C#N)cc23)cc1Cl.Cl [Example 8, 4-(3-Chloro-4-methoxybenzyl)amino-6-cyano-1-[4-(2-hydroxyethyl)piperidino]phthalazine hydrochloride] | 0.03 | 10 |
| COc1ccc(CNc2nnc(N3CCC(C(=O)O)CC3)c3cc(Cl)c(Cl)cc23)cc1Cl [Example 67, 1-(4-Carboxypiperidino)-4-(3-chloro-4-methoxybenzyl)amino-6,7-dichlorophthalazine] | 0.32 | 0.33 |
| COc1ccc(CNc2nnc(NCc3ccccn3)c3ccc(C#N)cc23)cc1Cl [Example 11, 4-(3-Chloro-4-methoxybenzyl)amino-6-cyano-1-(2-pyridylmethyl)aminophthalazine dihydrochloride] | 0.11 |  |
| COc1ccc(CNc2nnc(N3CCC(O)CC3)c3ccc(C#N)cc23)cc1Cl [Example 4, 4-(3-Chloro-4-methoxybenzyl)amino-6-cyano-1-(4-hydroxypiperidino)phthalazine hydrochloride] | 0.18 |  |
| Cl.N#Cc1ccc2c(N3CCC(O)CC3)nnc(NCc3ccc4c(c3)OCO4)c2c1 [Example 26, 6-Cyano-1-(4-hydroxypiperidino)-4-(3,4-methylenedioxy-benzyl)aminophthalazine hydrochloride] | 4 | 1 |
| COc1ccc(CNc2nnc(N3CCCC(O)C3)c3ccc(C#N)cc23)cc1Cl.Cl (stereo not drawn) [Example 10, 4-(3-Chloro-4-methoxybenzyl)amino-6-cyano-1-(3-hydroxypiperidino)phthalazine hydrochloride] |  | 10 |
| COc1ccc(CNc2nnc(N3CCC(C(=O)O)CC3)c3ccc(Cl)cc23)cc1Cl [Example 43, 1-(4-Carboxypiperidino)-6-chloro-4-(3-chloro-4-methoxybenzyl)aminophthalazine] | 0.37 | 1 |
| COc1ccc(CNc2nnc(N3CCC(O)CC3)c3ccc(Cl)cc23)cc1Cl.Cl [Example 32, 6-Chloro-4-(3-chloro-4-methoxybenzyl)amino-1-(4-hydroxypiperidino)phthalazine hydrochloride] | 4.4 | 1 |
| COc1ccc(CNc2nnc(N3CCC(C)(O)CC3)c3ccc(C#N)cc23)cc1Cl.Cl [Example 9, 4-(3-Chloro-4-methoxybenzyl)amino-6-cyano-1-(4-hydroxy-4-methylpiperidino)phthalazine hydrochloride] | 0.7 | 10 |

The remaining compounds from weak to strong by IC50 (cGMP-PDE), led by results:

| IC50 (cGMP-PDE) [nM] | SMILES | PAP lowering activity [1] |
| --- | --- | --- |
| 20.4 | O=[N+]([O-])c1ccc2c(-n3ccnc3)nnc(NCc3ccc4c(c3)OCO4)c2c1 [Example 60, 1-(Imidazol-1-yl)-4-(3,4-methylenedioxybenzyl)amino-6-nitrophthalazine] | 1 |
| 12.6 | COc1ccc(CNc2nnc(N3CCC(C(=O)O)CC3)c3ccc([N+](=O)[O-])cc23)cc1Cl.Cl [Example 56, 1-(4-Carboxypiperidino)-4-(3-chloro-4-methoxybenzyl)amino-6-nitrophthalazine hydrochloride] | ≥ 1 |
| 4.59 | CCOC(=O)C1CCN(c2nnc(NCc3ccc(OC)c(Cl)c3)c3cc([N+](=O)[O-])ccc23)CC1 [Example 55, 1-(4-Ethoxycarbonylpiperidino)-4-(3-chloro-4-methoxybenzyl)amino-6-nitrophthalazine] | ≥ 1 |
| 3.74 | COc1ccc(CNc2nnc(-n3ccnc3)c3ccc(Cl)cc23)cc1Cl [Example 31, 6-Chloro-4-(3-chloro-4-methoxybenzyl)amino-1-(imidazol-1-yl)phthalazine] | 1 |
| 2.1 | COc1ccc(CNc2nnc(N(C)CCCC(=O)O)c3ccc(Cl)cc23)cc1Cl [Example 44] | ≤ 0.33 |
| 1.9 | COc1ccc(CNc2nnc(N3CCC(CO)CC3)c3ccc(Cl)cc23)cc1Cl [Example 36, 6-Chloro-4-(3-chloro-4-methoxybenzyl)amino-1-[4-(hydroxymethyl)piperidino]phthalazine] | ≥ 1 |
| 1.88 | COc1ccc(CNc2nnc(Cl)c3ccc([N+](=O)[O-])cc23)cc1Cl [Example 49, 1-Chloro-4-(3-chloro-4-methoxybenzyl)amino-6-nitrophthalazine] | 1 |
| 1.8 | COc1ccc(CNc2nnc(N3CCC(CCO)CC3)c3ccc(Cl)cc23)cc1Cl [Example 37, 6-Chloro-4-(3-chloro-4-methoxybenzyl)amino-1-[4-(2-hydroxyethyl)piperidino]phthalazine] | ≤ 0.33 |
| 1.41 | COc1ccc(CNc2nn(CCCO)c(=O)c3ccc(C#N)cc23)cc1Cl [Example 25, 4-(3-Chloro-4-methoxybenzyl)amino-6-cyano-2-(3-hydroxypropyl)-1(2H)-phthalazinone] | 3 |
| 1.2 | COc1ccc(CNc2nnc(NCCCO)c3ccc(C#N)cc23)cc1Cl [Example 7, 4-(3-Chloro-4-methoxybenzyl)amino-6-cyano-1-(3-hydroxypropyl)aminophthalazine] | 1 |
| 0.53 | COc1ccc(CNc2nnc(N3CCC(=O)CC3)c3ccc(C#N)cc23)cc1Cl.Cl [Example 19, 4-(3-Chloro-4-methoxybenzyl)amino-6-cyano-1-(4-oxopiperidino)phthalazine hydrochloride] | 3-10 |
| 0.23 | COc1ccc(CNc2nnc(N3CCC(CCO)CC3)c3ccc([N+](=O)[O-])cc23)cc1Cl.Cl [Example 53, 4-(3-Chloro-4-methoxybenzyl)amino-1-[4-(2-hydroxyethyl)piperidino]-6-nitrophthalazine hydrochloride] | 10 |
| 0.12 | COc1ccc(CNc2nnc(N3CCC(C(=O)O)CC3)c3ccc(C#N)cc23)cc1Cl [Example 20, 1-(4-Carboxypiperidino)-4-(3-chloro-4-methoxybenzyl)-amino-6-cyanophthalazine hydrochloride] | 0.3-1 |
| 0.1 | COc1ccc(CNc2nnc(N3CCC(CO)CC3)c3ccc([N+](=O)[O-])cc23)cc1Cl.Cl [Example 52, 4-(3-Chloro-4-methoxybenzyl)amino-1-[4-(hydroxymethyl)piperidino]-6-nitrophthalazine hydrochloride] | 10 |
| 0.052 | COc1ccc(CNc2nnc(N3CCC(O)CC3)c3ccc([N+](=O)[O-])cc23)cc1Cl [Example 51, 4-(3-Chloro-4-methoxybenzyl)amino-1-(4-hydroxy-piperidino)-6-nitrophthalazine hydrochloride] |  |
| 0.015 | COc1ccc(CNc2nnc(N3CCC(CO)CC3)c3ccc(C#N)cc23)cc1Cl.Cl [Example 6, 4-(3-Chloro-4-methoxybenzyl)amino-6-cyano-1-[4-(hydroxymethyl)piperidino]phthalazine hydrochloride] | 10 |

Reference: patent publication US6218392A, “Fused pyridazine compounds” (priority 1994, dated 2001)
